Data reported in ChEMBL document CHEMBL1201862, “PubChem BioAssay data set” (2004).
The source made the active and inactive calls.

Columns and labels:
[1] = target: T1, Replicative DNA helicase DnaB (Mycobacterium tuberculosis, UniProt P9WMR3); experiment: DnaB intein splicing inhibitors, dose response, biochemical, cell-free fluorescence (AID 449749); format: functional
T1 sequence (P9WMR3 whole entry): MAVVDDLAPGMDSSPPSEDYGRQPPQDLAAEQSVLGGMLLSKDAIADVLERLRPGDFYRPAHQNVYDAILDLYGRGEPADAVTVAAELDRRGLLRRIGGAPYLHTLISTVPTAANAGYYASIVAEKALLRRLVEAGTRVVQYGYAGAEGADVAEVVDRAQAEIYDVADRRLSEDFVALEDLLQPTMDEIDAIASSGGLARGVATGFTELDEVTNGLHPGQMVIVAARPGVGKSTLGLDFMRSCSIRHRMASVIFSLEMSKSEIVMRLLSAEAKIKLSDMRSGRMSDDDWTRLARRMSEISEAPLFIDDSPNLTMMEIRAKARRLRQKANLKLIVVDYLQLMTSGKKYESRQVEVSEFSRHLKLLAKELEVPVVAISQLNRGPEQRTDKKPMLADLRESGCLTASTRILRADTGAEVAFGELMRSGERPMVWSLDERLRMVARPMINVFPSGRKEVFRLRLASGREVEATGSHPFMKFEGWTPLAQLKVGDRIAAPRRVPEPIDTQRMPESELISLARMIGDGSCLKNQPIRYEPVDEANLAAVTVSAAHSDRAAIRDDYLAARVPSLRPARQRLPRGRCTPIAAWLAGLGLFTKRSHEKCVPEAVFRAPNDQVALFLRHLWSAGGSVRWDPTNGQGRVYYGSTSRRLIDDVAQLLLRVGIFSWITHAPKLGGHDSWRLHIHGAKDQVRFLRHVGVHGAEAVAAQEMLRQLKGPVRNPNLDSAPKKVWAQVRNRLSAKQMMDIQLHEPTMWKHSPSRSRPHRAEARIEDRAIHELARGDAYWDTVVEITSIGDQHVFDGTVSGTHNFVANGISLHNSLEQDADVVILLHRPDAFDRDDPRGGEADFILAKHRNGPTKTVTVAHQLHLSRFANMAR

[2] = target: T2, Protein RecA (Mycobacterium tuberculosis, UniProt P9WHJ3); experiment: Fluorescence Cell-Free Homogeneous Dose Retest to Identify Inhibitors of RecA-Intein Splicing Activity. [Related pubchem assays (depositor defined):AID2097, AID2223, AID489010, AID492950]; format: functional
T2 sequence (P9WHJ3 whole entry): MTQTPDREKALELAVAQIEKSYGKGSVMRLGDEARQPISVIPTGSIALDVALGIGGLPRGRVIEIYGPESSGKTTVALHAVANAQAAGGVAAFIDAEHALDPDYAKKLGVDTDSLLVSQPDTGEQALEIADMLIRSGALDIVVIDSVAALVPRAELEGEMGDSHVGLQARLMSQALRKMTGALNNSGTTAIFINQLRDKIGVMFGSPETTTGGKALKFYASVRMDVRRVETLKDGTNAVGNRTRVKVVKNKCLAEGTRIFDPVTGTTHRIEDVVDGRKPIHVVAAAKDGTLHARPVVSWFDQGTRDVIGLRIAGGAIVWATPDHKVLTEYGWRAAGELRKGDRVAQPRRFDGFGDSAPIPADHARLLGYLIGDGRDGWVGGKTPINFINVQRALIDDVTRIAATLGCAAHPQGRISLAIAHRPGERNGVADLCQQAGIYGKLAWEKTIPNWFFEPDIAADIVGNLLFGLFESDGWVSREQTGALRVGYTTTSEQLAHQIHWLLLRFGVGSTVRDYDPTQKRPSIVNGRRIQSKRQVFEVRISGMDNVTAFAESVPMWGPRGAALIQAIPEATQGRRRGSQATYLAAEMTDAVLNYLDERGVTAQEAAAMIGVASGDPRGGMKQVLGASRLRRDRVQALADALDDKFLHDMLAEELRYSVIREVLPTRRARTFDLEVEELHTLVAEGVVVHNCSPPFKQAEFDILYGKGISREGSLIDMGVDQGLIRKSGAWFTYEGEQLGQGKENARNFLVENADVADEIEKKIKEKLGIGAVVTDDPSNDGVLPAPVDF

[3] = cytotoxicity toward DRD oncogenic fibroblasts, dose response, cell-based, non-viral oncogenic, luminescence (AID 1934); format: functional; conditions: Homo sapiens
[4] = tested on: BJ; experiment: cells; format: functional, cell-based; conditions: Homo sapiens
[5] = tested on: BJ; experiment: cytotoxicity toward BJ-TERT-LT-ST fibroblasts, dose response, cell-based, RAS-independent, luminescence (AID 1935); format: functional; conditions: Homo sapiens;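 further: BJ fibroblasts immortalized with TERT plus LT and ST oncogenes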
[6] = tested on: BJ; experiment: cytotoxicity toward BJ-TERT fibroblasts, dose response, cell-based, RAS-independent, luminescence (AID 1933); format: functional; conditions: Homo sapiens
[7] = target: T3, Heat shock factor protein 1 (Mus musculus, UniProt P38532); experiment: HSF1 potentiators in luciferase reporter cells, confirmation, cell-based, NIH3T3, luminescence, dose retest (AID 435004); format: functional;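 further: stress induced by proteasome inhibitor MG132 added 30 min after compound; luciferase reporter driven by HSF1 response element in NIH3T3 cells; actives raise luminescence as potentiators of the MG132 stress response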
T3 sequence (P38532 whole entry): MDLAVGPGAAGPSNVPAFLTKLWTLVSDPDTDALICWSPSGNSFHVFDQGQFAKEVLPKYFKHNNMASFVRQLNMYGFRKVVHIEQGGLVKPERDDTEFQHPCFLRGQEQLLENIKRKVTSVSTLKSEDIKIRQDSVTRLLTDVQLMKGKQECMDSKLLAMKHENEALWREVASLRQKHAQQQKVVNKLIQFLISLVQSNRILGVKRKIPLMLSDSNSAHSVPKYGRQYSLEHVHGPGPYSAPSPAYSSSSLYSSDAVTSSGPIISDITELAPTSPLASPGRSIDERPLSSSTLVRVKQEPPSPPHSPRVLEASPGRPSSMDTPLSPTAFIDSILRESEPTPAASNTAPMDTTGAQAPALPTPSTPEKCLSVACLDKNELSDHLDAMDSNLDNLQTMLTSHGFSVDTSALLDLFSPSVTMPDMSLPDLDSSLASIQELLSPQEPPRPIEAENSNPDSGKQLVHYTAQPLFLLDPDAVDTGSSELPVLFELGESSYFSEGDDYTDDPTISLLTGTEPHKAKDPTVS

[8] = target: FAD-linked sulfhydryl oxidase ALR (Homo sapiens, UniProt P55789); experiment: inhibitors of human ALR sulfhydryl oxidase, dose response, biochemical, H2O2 detection, luminescence, cherry-pick (AID 493248)
[9] = Shn3 3'UTR reporter inhibitors, dose response, cell-based, Clone20 osteoblasts, firefly luciferase, cherry-picked (AID 624132); format: functional;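 further: firefly luciferase luminescence from reporter carrying the Shn3 3'UTR in osteoblasts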
[10] = control 3'UTR Renilla luciferase suppression, dose response, counter-screen for Shn3 inhibitor project, cell-based, Clone20-Shn3RL, cherry-picked (AID 624133); format: functional
[11] = HepG2 cell cytotoxicity, dose response, cytotoxicity control for Shn3 inhibitor project, CellTiter-Glo, cherry-picked (AID 624134); format: functional, cell-based
[12] = inhibitors of SNCA 5'UTR-driven reporter translation, confirmation, H4 neuroglioma cells, luminescence (AID 1988); format: functional, cell-based
[13] = inhibitors of firefly luciferase expression or activity, dose response, H4 neuroglioma cells, luminescence (AID 1990); format: functional, cell-based
[14] = Luminescence Cell-Based Dose Response HTS to Identify Inhibitors of 5'UTR Stem-Loop Driven Prion Protein mRNA Translation in H4 Neuroglioblastoma Cells. [Related pubchem assays: 1827 (Project Summary), 1813 (Primary HTS)]; format: functional
[15] = tested on: SN12K1; experiment: cells; format: functional; conditions: Homo sapiens
[16] = tested on: P388; experiment: cells; format: functional; conditions: Mus musculus
[17] = tested on: P388/ADR; experiment: cells; format: functional; conditions: Mus musculus

Sequence of FAD-linked sulfhydryl oxidase ALR (P55789 whole entry): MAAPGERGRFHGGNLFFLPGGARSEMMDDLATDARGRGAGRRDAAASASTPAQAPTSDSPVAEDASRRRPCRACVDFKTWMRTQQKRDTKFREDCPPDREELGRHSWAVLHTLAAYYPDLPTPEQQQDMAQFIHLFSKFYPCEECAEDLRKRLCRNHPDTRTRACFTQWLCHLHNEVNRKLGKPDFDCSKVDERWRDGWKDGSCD

SMILES	AC50 [8]	GI50 [15]	GI50 [16]	GI50 [17]	further results
O=C(CSc1nc2ccccc2nc1SCC(=O)N1CCOCC1)N1CCOCC1					AC50 [1]: 194 µM (active); EC50 [2]: > 380 µM (inactive)
O=Cc1cccnc1SCc1ccccc1					EC50 [3]: 21.3 µM (active); EC50 [4]: 16.3 µM (active); EC50 [5]: 11.1 µM (inconclusive); EC50 [6]: 10.5 µM (active)
CCCCNC1C(CC)C(CCC)C(C#N)(C#N)C1(C#N)C#N (centres undefined)					AC50 [1]: > 380 µM (inactive); EC50 [7]: 11.1 µM (active); EC50 [2]: 2.36 µM (active)
COc1cccc(CNn2cnnc2)c1O	2.23 µM (active)				
C=CCNc1nc(N2CCOCC2)c(C#N)c2c1CN(C)CC2					AC50 [9]: > 70 µM (inactive); AC50 [10]: 28.2 µM (active)
O=C(Nc1ccc(Cl)cn1)c1cccc(F)c1					EC50 [3]: 18.4 µM (active); EC50 [4]: 35.6 µM (active); EC50 [5]: > 150 µM (inconclusive); EC50 [6]: 18.4 µM (active)
O=C(C1CCCCC1)N1CCN=C1SCc1cccnc1	0.097 µM (active)				
C=CCNc1nc(N2CCCCC2)c(C#N)c2c1CN(Cc1ccccc1)CC2					AC50 [9]: 16.8 µM (active); AC50 [11]: > 70 µM (inactive); AC50 [10]: 28.9 µM (active)
CCCCNC(=O)c1ccc(CS(=O)(=O)c2ccc(C)cc2)o1	15.6 µM (active)				
CSCC[C@H](NC(=O)N1CCn2c1nc1ccccc12)C(=O)NCc1ccco1	6.97 µM (active)				
COc1ccc(C)cc1NC(=O)CNC(c1ccccc1)c1ccc(C)cc1 (centres undefined)					EC50 [3]: 1.39 µM (active); EC50 [4]: 50.2 µM (inconclusive); EC50 [12]: 0.205 µM (active); EC50 [13]: 10.3 µM (active); EC50 [5]: 2.79 µM (active); EC50 [6]: 2.53 µM (active)
COc1ccc(NC2CCCN(C(=O)c3cn(C)c4ccccc34)C2)cc1 (centres undefined)	3.1 µM (active)				
Sc1nc2ccc(Cl)cc2s1	2.39 µM (active)				
COc1cccc(N2CCN(C(=O)c3ccc(C[S+]([O-])c4ccc(Cl)cc4)o3)CC2)c1 (centres undefined)	3.44 µM (active)				EC50 [12]: 0.67 µM (active); EC50 [14]: 6.76 µM (active); EC50 [13]: 4.79 µM (inconclusive)
O=[N+]([O-])c1ccc(Nc2cccc3c4cc[nH]c(-c5ccccc5)c-4nc23)c([N+](=O)[O-])c1		10 µM (inactive)	20.1 µM (inactive)	14.3 µM (inactive)	
COc1cc(NC(=O)COc2cccc3c2OC(C)(C)C3)cc(OC)c1OC					AC50 [9]: 4.38 µM (active); AC50 [10]: 3.03 µM (active)
CCOC(=O)COc1ccccc1/C=C1\CCC(CN(C)C)C1=O (centres undefined)		1.87 µM (inactive)	0.342 µM (active)	0.436 µM (active)	
CCOC(=O)C(C)NC(=O)N(C)C12CC3CC(CC(C3)C1)C2 (centres undefined)		190 µM (inactive)	52.2 µM (inactive)	123 µM (inactive)	
CC12CCC3C(CCC4(O)C=CCCC34C=O)C1(O)CC(O)C2c1ccc(=O)oc1 (centres undefined)		0.0624 µM (active)	336 µM (inactive)	> 500 µM (inactive)	
CN(C)CCNc1c([N+](=O)[O-])cc2c3c(cccc13)C(=O)N(CCN(C)C)C2=O		7.83 µM (inactive)	0.925 µM (active)	1.87 µM (inactive)	
CC(C)=CCc1c(O)ccc2c1OC1c3ccc(O)c(CC=C(C)C)c3OCC21 (centres undefined)		4.92 µM (inactive)	5.55 µM (inactive)	7.31 µM (inactive)	
O=S1(=O)N2CN3CN(C2)CN1C3		> 100 µM (inactive)	18.5 µM (inactive)	21.2 µM (inactive)	
C=CCNC(=O)C(C)C1CCC2(C)C=CC(=O)C(C)=C2C1O (centres undefined)		> 100 µM (inactive)	> 100 µM (inactive)	> 100 µM (inactive)	
O=C(O)CCC(NC(=O)c1ccc(Nc2cnc3cc(C(F)(F)F)ccc3n2)cc1)C(=O)O (centres undefined)		> 100 µM (inactive)	> 100 µM (inactive)	> 100 µM (inactive)	
Cc1c(C2=NN=C(/N=N/c3c(O)cccc3O)/C2=C/c2ccccc2)c(=O)n(-c2ccccc2)n1C		> 100 µM (inactive)	> 100 µM (inactive)	> 100 µM (inactive)	
CC1(CO)C(O)CCC2(C)C1CCC1CC3CC12CCC3(O)CO (centres undefined)		1.16 µM (inactive)	0.394 µM (active)	0.42 µM (active)	
Cc1[nH]c2ccccc2c1/C=N/NC(=O)Cc1cccs1	4.46 µM (active)				
O=C(NC1CC1)c1ccc(CSCc2ccccc2Cl)o1	0.549 µM (active)				
CC1(C)S[C@@H]2[C@H](NC(=O)CCC[C@@H](N)C(=O)O)C(=O)N2[C@H]1C(=O)O [ADICILLIN]		> 50 µM (inactive)	> 50 µM (inactive)	> 50 µM (inactive)	
